# Test results reported in publication PMC10445290, “Enantiomeric Fractions Reveal Differences in the Atropselective Disposition of 2,2′,3,5′,6-Pentachlorobiphenyl (PCB 95) in Wildtype, Cyp2abfgs-Null, and CYP2A6-Humanized Mice” (Chemical Research in Toxicology, 2023).
# Test: Levels of PCB 95 and its hydroxylated metabolites in adipose, blood, brain and liver 24 h after a single oral dose (GC-MS/MS)
# Type: in vivo, mice
# Conditions: FKI, female CYP2A6-humanized mice, single oral PCB 95 1.0 mg/kg, mean ± SD, 1 mg/kg
# Procedure: Adult male and female wild-type (WT) C57BL/6 mice, KO, and KI mice (4 months old) were exposed to racemic PCB 95. Mice were randomly assigned to exposure groups and received a single oral dose of PCB 95 (1.0 mg/kg) in stripped corn oil (10 mL/kg; lot# A0395699; cat# 801-03-7; Fisher Scientific) via gavage (5–7 mice per group). Control animals received corn oil alone (1–3 mice per group) to assess the potential background contamination with PCB 95. Animals were euthanized 24 h after PCB 95 exposure. Blood was collected from the heart and placed in pre-weighed glass vials with 80 μL of ethylenediaminetetraacetic acid solution (EDTA, 7.5%, w/w). The amount of blood in each vial was determined by weight prior to sample extraction. Adipose, brain, and liver tissues were excised from each animal and individually wrapped in aluminum foil. Samples were stored at −80 °C in separate plastic bags and shipped on dry ice to the University of Iowa for analysis.
# PCB 95 and its hydroxylated metabolites were extracted from adipose (0.06 ± 0.01 g), brain (0.19 ± 0.03 g) and liver tissues (0.49 ± 0.07 g) by pressurized liquid extraction (PLE) with a Dionex ASE200 system (Dionex, Sunnyvale, CA, USA).[45] Tissues were homogenized with 2 g of pre-cleaned diatomaceous earth (Thermo Fisher Scientific, Pittsburgh, PA, USA) and placed in extraction cells loaded with 10 g of pre-extracted Florisil (60–100 mesh, Fisher Scientific, Pittsburgh, PA, USA). Tissue samples were then spiked with recovery standards [50 ng of PCB 117 in 50 μL of isooctane and 50 ng of 4′-159 (2′,3,3′,5,5′,6′-hexachlorobiphenyl-4-ol) in 50 μL of methanol]. For ongoing precision recovery (OPR) samples; recovery standard, internal standard, PCB 95, and its metabolites (50 ng each) were spiked to the method blank (DE only) and tissues from control animals. Cells were extracted with hexane–dichloromethane–methanol (48:43:9, v/v/v) at 100 °C and 1500 psi (10 MPa), with preheat equilibration for 6 min, 60% of cell flush volume, and 1 static cycle of 5 min. The extracts were concentrated to approximately 1 mL with a TurboVap II (Biotage, LLC, NC, USA) and transferred to new glass tubes with 1 mL of hexane. The solvent was evaporated to near dryness under a gentle stream of nitrogen, and extracts were redissolved in 1 mL of hexane.
# PCB 95 and its hydroxylated metabolites were extracted from whole blood (0.45 ± 0.13 g) using a published liquid–liquid extraction procedure.[29] Briefly, blood samples were thawed, and 3 mL of aqueous 1% KCl solution was added to each sample. Recovery standards (50 ng of PCB 117 in 50 μL of isooctane and 50 ng of 4′-159 in 50 μL of methanol) were spiked to all samples, including OPR samples, before extraction. Subsequently, 1 mL of 6 M HCl, 5 mL of 2-propanol, and 5 mL of 1:1 hexane–MTBE mixture (v/v) were added to the blood samples. The samples were inverted for 5 min and centrifuged at 1690g for 5 min to facilitate the phase separation. Next, the organic phases were transferred to new glass tubes, and the aqueous phases were re-extracted with 3 mL of hexane. Next, three mL of aqueous 1% KCl were added to the combined organic extracts, and samples were inverted and centrifuged as described above. The organic phase was transferred to a new tube, and the aqueous phase was re-extracted with 3 mL of hexane. The combined organic extracts were evaporated to near dryness using a Savant SpeedVac SPD210 (Thermo Scientific, Waltham, MA, US), and each sample was reconstituted with 0.5 mL of hexane.
# Five drops of methanol and 0.5 mL of diazomethane (CH2N2; about 0.1 mmol) in diethyl ether were added to the tissue or blood extracts to derivatize the OH-PCBs.[45] Diazomethane rapidly converts the phenolic hydroxyl groups of OH-PCBs to methoxy groups (i.e., −OH → −OCH3). All samples were stored at 4 °C for approximately 16 h. Excess diazomethane evaporated under a gentle stream of nitrogen in a fume hood, followed by adding 0.5 mL of hexane. […]
row,Compound,Levels in liver
1,"Oc1cc(Cl)c(-c2cc(Cl)ccc2Cl)c(Cl)c1Cl [4-95, 2,2',3,5',6-pentachlorobiphenyl-4-ol]",0.4 ng/g tissue

# Same assay, conditions: FKO, female Cyp2abfgs-null mice, single oral PCB 95 1.0 mg/kg, mean ± SD, 1 mg/kg
row,Compound,Levels in liver
1,Oc1cc(Cl)c(-c2c(Cl)ccc(Cl)c2Cl)cc1Cl [4'-95],8.5 ng/g tissue

# Same assay, conditions: female, C57BL/6 (wild-type), mouse, adipose, po, 1 mg/kg, FWT, female wildtype mice, single oral PCB 95 1.0 mg/kg, mean ± SD, read-out: Levels in adipose
row,Compound,concentration at 24 h
1,Oc1cc(Cl)c(-c2c(Cl)ccc(Cl)c2Cl)cc1Cl [4'-95],1.4 ± 0.6 ng/g
2,"Oc1cc(Cl)c(-c2cc(Cl)ccc2Cl)c(Cl)c1Cl [4-95, 2,2',3,5',6-pentachlorobiphenyl-4-ol]",0.4 ± 0.1 ng/g

# Same assay, conditions: female, C57BL/6 (wild-type), mouse, brain, po, 1 mg/kg, FWT, female wildtype mice, single oral PCB 95 1.0 mg/kg, mean ± SD, read-out: Levels in brain
row,Compound,concentration at 24 h
1,Oc1cc(Cl)c(-c2c(Cl)ccc(Cl)c2Cl)cc1Cl [4'-95],0.3 ng/g

# Same assay, conditions: female, C57BL/6 (wild-type), mouse, liver, po, 1 mg/kg, FWT, female wildtype mice, single oral PCB 95 1.0 mg/kg, mean ± SD, read-out: Levels in liver
row,Compound,concentration at 24 h
1,Oc1cc(Cl)c(-c2c(Cl)ccc(Cl)c2Cl)cc1Cl [4'-95],3.7 ± 1.8 ng/g
2,"Oc1cc(Cl)c(-c2cc(Cl)ccc2Cl)c(Cl)c1Cl [4-95, 2,2',3,5',6-pentachlorobiphenyl-4-ol]",1 ± 0.6 ng/g

# Same assay, conditions: female, C57BL/6 (wild-type), mouse, whole blood, po, 1 mg/kg, FWT, female wildtype mice, single oral PCB 95 1.0 mg/kg, mean ± SD, read-out: Levels in blood
row,Compound,concentration at 24 h
1,Oc1cc(Cl)c(-c2c(Cl)ccc(Cl)c2Cl)cc1Cl [4'-95],2.2 ± 1 ng/g
2,"Oc1cc(Cl)c(-c2cc(Cl)ccc2Cl)c(Cl)c1Cl [4-95, 2,2',3,5',6-pentachlorobiphenyl-4-ol]",1.5 ± 0.5 ng/g

# Same assay, conditions: female, CYP2A6-humanized (KI), mouse, adipose, po, 1 mg/kg, FKI, female CYP2A6-humanized mice, single oral PCB 95 1.0 mg/kg, mean ± SD, read-out: Levels in adipose
row,Compound,concentration at 24 h
1,Oc1cc(Cl)c(-c2c(Cl)ccc(Cl)c2Cl)cc1Cl [4'-95],1.1 ± 0.3 ng/g

# Same assay, conditions: female, CYP2A6-humanized (KI), mouse, liver, po, 1 mg/kg, FKI, female CYP2A6-humanized mice, single oral PCB 95 1.0 mg/kg, mean ± SD, read-out: Levels in liver
row,Compound,concentration at 24 h
1,Oc1cc(Cl)c(-c2c(Cl)ccc(Cl)c2Cl)cc1Cl [4'-95],4.5 ± 2.6 ng/g
2,"Oc1cc(Cl)c(-c2cc(Cl)ccc2Cl)c(Cl)c1Cl [4-95, 2,2',3,5',6-pentachlorobiphenyl-4-ol]",0.4 ± 0.1 ng/g

# Same assay, conditions: female, CYP2A6-humanized (KI), mouse, whole blood, po, 1 mg/kg, FKI, female CYP2A6-humanized mice, single oral PCB 95 1.0 mg/kg, mean ± SD, read-out: Levels in blood
row,Compound,concentration at 24 h
1,Oc1cc(Cl)c(-c2c(Cl)ccc(Cl)c2Cl)cc1Cl [4'-95],3.4 ± 2.5 ng/g
2,"Oc1cc(Cl)c(-c2cc(Cl)ccc2Cl)c(Cl)c1Cl [4-95, 2,2',3,5',6-pentachlorobiphenyl-4-ol]",1 ± 0.8 ng/g

# Same assay, conditions: female, Cyp2abfgs-null (KO), mouse, adipose, po, 1 mg/kg, FKO, female Cyp2abfgs-null mice, single oral PCB 95 1.0 mg/kg, mean ± SD, read-out: Levels in adipose
row,Compound,concentration at 24 h
1,Oc1cc(Cl)c(-c2c(Cl)ccc(Cl)c2Cl)cc1Cl [4'-95],1.5 ± 0.4 ng/g

# Same assay, conditions: female, Cyp2abfgs-null (KO), mouse, liver, po, 1 mg/kg, FKO, female Cyp2abfgs-null mice, single oral PCB 95 1.0 mg/kg, mean ± SD, read-out: Levels in liver
row,Compound,concentration at 24 h
1,Oc1cc(Cl)c(-c2c(Cl)ccc(Cl)c2Cl)cc1Cl [4'-95],8.5 ± 3.9 ng/g
2,"Oc1cc(Cl)c(-c2cc(Cl)ccc2Cl)c(Cl)c1Cl [4-95, 2,2',3,5',6-pentachlorobiphenyl-4-ol]",0.4 ± 0.3 ng/g

# Same assay, conditions: female, Cyp2abfgs-null (KO), mouse, whole blood, po, 1 mg/kg, FKO, female Cyp2abfgs-null mice, single oral PCB 95 1.0 mg/kg, mean ± SD, read-out: Levels in blood
row,Compound,concentration at 24 h
1,Oc1cc(Cl)c(-c2c(Cl)ccc(Cl)c2Cl)cc1Cl [4'-95],2.2 ± 1.2 ng/g
2,"Oc1cc(Cl)c(-c2cc(Cl)ccc2Cl)c(Cl)c1Cl [4-95, 2,2',3,5',6-pentachlorobiphenyl-4-ol]",0.4 ± 0.3 ng/g

# Same assay, conditions: male, C57BL/6 (wild-type), mouse, adipose, po, 1 mg/kg, MWT, male wildtype mice, single oral PCB 95 1.0 mg/kg, mean ± SD, read-out: Levels in adipose
row,Compound,concentration at 24 h
1,Oc1cc(Cl)c(-c2c(Cl)ccc(Cl)c2Cl)cc1Cl [4'-95],2.1 ± 0.8 ng/g
2,"Oc1cc(Cl)c(-c2cc(Cl)ccc2Cl)c(Cl)c1Cl [4-95, 2,2',3,5',6-pentachlorobiphenyl-4-ol]",0.5 ± 0.3 ng/g

# Same assay, conditions: male, C57BL/6 (wild-type), mouse, liver, po, 1 mg/kg, MWT, male wildtype mice, single oral PCB 95 1.0 mg/kg, mean ± SD, read-out: Levels in liver
row,Compound,concentration at 24 h
1,Oc1cc(Cl)c(-c2c(Cl)ccc(Cl)c2Cl)cc1Cl [4'-95],5.7 ± 2.8 ng/g
2,"Oc1cc(Cl)c(-c2cc(Cl)ccc2Cl)c(Cl)c1Cl [4-95, 2,2',3,5',6-pentachlorobiphenyl-4-ol]",2 ± 0.8 ng/g

# Same assay, conditions: male, C57BL/6 (wild-type), mouse, whole blood, po, 1 mg/kg, MWT, male wildtype mice, single oral PCB 95 1.0 mg/kg, mean ± SD, read-out: Levels in blood
row,Compound,concentration at 24 h
1,Oc1cc(Cl)c(-c2c(Cl)ccc(Cl)c2Cl)cc1Cl [4'-95],3.5 ± 1.1 ng/g
2,"Oc1cc(Cl)c(-c2cc(Cl)ccc2Cl)c(Cl)c1Cl [4-95, 2,2',3,5',6-pentachlorobiphenyl-4-ol]",3.2 ± 1.1 ng/g

# Same assay, conditions: male, CYP2A6-humanized (KI), mouse, adipose, po, 1 mg/kg, MKI, male CYP2A6-humanized mice, single oral PCB 95 1.0 mg/kg, mean ± SD, read-out: Levels in adipose
row,Compound,concentration at 24 h
1,Oc1cc(Cl)c(-c2c(Cl)ccc(Cl)c2Cl)cc1Cl [4'-95],1.1 ± 0.2 ng/g
2,"Oc1cc(Cl)c(-c2cc(Cl)ccc2Cl)c(Cl)c1Cl [4-95, 2,2',3,5',6-pentachlorobiphenyl-4-ol]",0.3 ng/g

# Same assay, conditions: male, CYP2A6-humanized (KI), mouse, liver, po, 1 mg/kg, MKI, male CYP2A6-humanized mice, single oral PCB 95 1.0 mg/kg, mean ± SD, read-out: Levels in liver
row,Compound,concentration at 24 h
1,Oc1cc(Cl)c(-c2c(Cl)ccc(Cl)c2Cl)cc1Cl [4'-95],3.8 ± 2.1 ng/g
2,"Oc1cc(Cl)c(-c2cc(Cl)ccc2Cl)c(Cl)c1Cl [4-95, 2,2',3,5',6-pentachlorobiphenyl-4-ol]",0.8 ± 0.5 ng/g

# Same assay, conditions: male, CYP2A6-humanized (KI), mouse, whole blood, po, 1 mg/kg, MKI, male CYP2A6-humanized mice, single oral PCB 95 1.0 mg/kg, mean ± SD, read-out: Levels in blood
row,Compound,concentration at 24 h
1,Oc1cc(Cl)c(-c2c(Cl)ccc(Cl)c2Cl)cc1Cl [4'-95],1.3 ± 0.7 ng/g
2,"Oc1cc(Cl)c(-c2cc(Cl)ccc2Cl)c(Cl)c1Cl [4-95, 2,2',3,5',6-pentachlorobiphenyl-4-ol]",1.1 ± 0.6 ng/g

# Same assay, conditions: male, Cyp2abfgs-null (KO), mouse, adipose, po, 1 mg/kg, MKO, male Cyp2abfgs-null mice, single oral PCB 95 1.0 mg/kg, mean ± SD, read-out: Levels in adipose
row,Compound,concentration at 24 h
1,Oc1cc(Cl)c(-c2c(Cl)ccc(Cl)c2Cl)cc1Cl [4'-95],2.5 ± 1.7 ng/g
2,"Oc1cc(Cl)c(-c2cc(Cl)ccc2Cl)c(Cl)c1Cl [4-95, 2,2',3,5',6-pentachlorobiphenyl-4-ol]",0.4 ± 0.1 ng/g

# Same assay, conditions: male, Cyp2abfgs-null (KO), mouse, brain, po, 1 mg/kg, MKO, male Cyp2abfgs-null mice, single oral PCB 95 1.0 mg/kg, mean ± SD, read-out: Levels in brain
row,Compound,concentration at 24 h
1,Oc1cc(Cl)c(-c2c(Cl)ccc(Cl)c2Cl)cc1Cl [4'-95],0.2 ng/g

# Same assay, conditions: male, Cyp2abfgs-null (KO), mouse, liver, po, 1 mg/kg, MKO, male Cyp2abfgs-null mice, single oral PCB 95 1.0 mg/kg, mean ± SD, read-out: Levels in liver
row,Compound,concentration at 24 h
1,Oc1cc(Cl)c(-c2c(Cl)ccc(Cl)c2Cl)cc1Cl [4'-95],7.7 ± 3.6 ng/g
2,"Oc1cc(Cl)c(-c2cc(Cl)ccc2Cl)c(Cl)c1Cl [4-95, 2,2',3,5',6-pentachlorobiphenyl-4-ol]",1.1 ± 0.9 ng/g

# Same assay, conditions: male, Cyp2abfgs-null (KO), mouse, whole blood, po, 1 mg/kg, MKO, male Cyp2abfgs-null mice, single oral PCB 95 1.0 mg/kg, mean ± SD, read-out: Levels in blood
row,Compound,concentration at 24 h
1,Oc1cc(Cl)c(-c2c(Cl)ccc(Cl)c2Cl)cc1Cl [4'-95],2.8 ± 0.9 ng/g
2,"Oc1cc(Cl)c(-c2cc(Cl)ccc2Cl)c(Cl)c1Cl [4-95, 2,2',3,5',6-pentachlorobiphenyl-4-ol]",1.5 ± 0.8 ng/g
